These results are taken from ChEMBL document CHEMBL4673259, “Discovery of isoquinolinone and naphthyridinone-based inhibitors of poly(ADP-ribose) polymerase-1 (PARP1) as anticancer agents: Structure activity relationship and preclinical characterization” (Bioorg Med Chem, 2020).

Data set [1] can be described thus: Protein binding in dog plasma. In kind it is ADME, cell-free, Canis lupus familiaris. To be noted: read-out: PPB (converted).
Data set [2] can be described thus: Clearance in BALB/c mouse at 1 mg/kg, iv measured up to 24 hrs by LC-MS/MS analysis. Type of data set: ADME, organism-based. To be noted: in vivo.
Data set [3] can be described thus: Volume of distribution at steady state in BALB/c mouse at 1 mg/kg, iv measured up to 24 hrs by LC-MS/MS analysis. Type of data set: ADME, organism-based. To be noted: in vivo, read-out: Vdss.
Data set [4] is described as follows: Half life in BALB/c mouse at 1 mg/kg, iv measured up to 24 hrs by LC-MS/MS analysis. To be noted: in vivo. In kind it is ADME, organism-based.
The nature of data set [5]: Cmax in BALB/c mouse at 1 mg/kg, iv measured up to 24 hrs by LC-MS/MS analysis. In kind it is ADME, organism-based. The arrangement: route intravenous, dose 1 mg/kg, time <=24. To be noted: in vivo.
In data set [6] the test system is MDA-MB-436. The experiment in a line: Potentiation of anticancer activity against human MDA-MB-436 cells harboring BRCA mutant xenografted in SCID/nude mouse assessed as tumor growth inhibition at 0.15 mg/kg, po bid for 12 days co-administered with TMZ measured up to 9 weeks post drug administration. In kind it is functional. To be noted: MDA-MB-436, po, 288 h, time 12 day.

A further data set concerns the target CYP1A2 (Homo sapiens, UniProt P05177). The data set can be described thus: Inhibition of CYP1A2 (unknown origin) at 10 uM relative to control. Type of data set: ADME.
The target in data set [7] is Poly [ADP-ribose] polymerase tankyrase-1 (Homo sapiens, UniProt O95271). The experiment in a line: Inhibition of TNKS1 (unknown origin).
A short description of data set [8]: Metabolic stability of the compound in rat plasma measured up to 4 hrs. To be noted: read-out: Stabilty. In kind it is ADME, cell-free.
A further data set relates to MCF7. The data set can be described thus: Cytotoxicity against human MCF7 cells harboring wild type BRCA at 1000 nM relative to control. To be noted: mcf7, 1 µM. In kind it is cell-based.
The nature of data set [9]: Protein binding in mouse plasma. In kind it is ADME, cell-free. To be noted: read-out: PPB (converted).
In data set [10] the test system is MDA-MB-436. The experiment in a line: Anticancer activity against human MDA-MB-436 cells harboring BRCA mutant xenografted in SCID/nude mouse assessed as tumor growth regression at 0.05 mg/kg, po bid and measured up to 5 weeks post-drug administration. Type of data set: functional. To be noted: MDA-MB-436, po, 840 h, time weeks <=5. A general note: In xenograft studies the graft and the host belong to different species.

A further data set concerns the target CYP2E1 (Homo sapiens, UniProt P05181). The experiment in a line: Inhibition of CYP2E1 (unknown origin) at 10 uM relative to control. In kind it is ADME.
Data set [11] can be described thus: Tmax in BALB/c mouse at 10 mg/kg, po measured up to 24 hrs by LC-MS/MS analysis. Type of data set: ADME, organism-based. To be noted: in vivo.
A short description of data set [12]: Oral bioavailability in BALB/c mouse at 10 mg/kg measured up to 24 hrs by LC-MS/MS analysis. To be noted: in vivo. Type of data set: ADME, organism-based.
Data set [13] deals with Mitogen-activated protein kinase kinase kinase 14 (Homo sapiens) (UniProt Q99558). The data set can be described thus: Inhibition of NIK (unknown origin) at 10 uM.
The next data set deals with CYP2D6 (Homo sapiens, UniProt P10635). The data set can be described thus: Inhibition of CYP2D6 (unknown origin) at 10 uM relative to control. In kind it is ADME.
In data set [14] the target is Poly [ADP-ribose] polymerase 1 (Homo sapiens, UniProt P09874). The data set can be described thus: Inhibition of N-terminal GST-tagged human full length PARP1 (2 to 1041 residues) expressed in baculovirus infected Sf9 cells using histone mixture (H2A and H2B) and biotinylated NAD+ as substrate in presence of activated DNA incubated for 60 mins by chemiluminescence assay.

Data set [15] in a line: AUClast in BALB/c mouse at 1 mg/kg, iv measured up to 24 hrs by LC-MS/MS analysis. Type of data set: ADME, organism-based. The arrangement: route intravenous, dose 1 mg/kg, time <=24. To be noted: in vivo.
The nature of data set [16]: Tmax in BALB/c mouse at 1 mg/kg, iv measured up to 24 hrs by LC-MS/MS analysis. Type of data set: ADME, organism-based. To be noted: in vivo.

Chain of Poly [ADP-ribose] polymerase 1 (P09874 whole entry, the tested form may be a part): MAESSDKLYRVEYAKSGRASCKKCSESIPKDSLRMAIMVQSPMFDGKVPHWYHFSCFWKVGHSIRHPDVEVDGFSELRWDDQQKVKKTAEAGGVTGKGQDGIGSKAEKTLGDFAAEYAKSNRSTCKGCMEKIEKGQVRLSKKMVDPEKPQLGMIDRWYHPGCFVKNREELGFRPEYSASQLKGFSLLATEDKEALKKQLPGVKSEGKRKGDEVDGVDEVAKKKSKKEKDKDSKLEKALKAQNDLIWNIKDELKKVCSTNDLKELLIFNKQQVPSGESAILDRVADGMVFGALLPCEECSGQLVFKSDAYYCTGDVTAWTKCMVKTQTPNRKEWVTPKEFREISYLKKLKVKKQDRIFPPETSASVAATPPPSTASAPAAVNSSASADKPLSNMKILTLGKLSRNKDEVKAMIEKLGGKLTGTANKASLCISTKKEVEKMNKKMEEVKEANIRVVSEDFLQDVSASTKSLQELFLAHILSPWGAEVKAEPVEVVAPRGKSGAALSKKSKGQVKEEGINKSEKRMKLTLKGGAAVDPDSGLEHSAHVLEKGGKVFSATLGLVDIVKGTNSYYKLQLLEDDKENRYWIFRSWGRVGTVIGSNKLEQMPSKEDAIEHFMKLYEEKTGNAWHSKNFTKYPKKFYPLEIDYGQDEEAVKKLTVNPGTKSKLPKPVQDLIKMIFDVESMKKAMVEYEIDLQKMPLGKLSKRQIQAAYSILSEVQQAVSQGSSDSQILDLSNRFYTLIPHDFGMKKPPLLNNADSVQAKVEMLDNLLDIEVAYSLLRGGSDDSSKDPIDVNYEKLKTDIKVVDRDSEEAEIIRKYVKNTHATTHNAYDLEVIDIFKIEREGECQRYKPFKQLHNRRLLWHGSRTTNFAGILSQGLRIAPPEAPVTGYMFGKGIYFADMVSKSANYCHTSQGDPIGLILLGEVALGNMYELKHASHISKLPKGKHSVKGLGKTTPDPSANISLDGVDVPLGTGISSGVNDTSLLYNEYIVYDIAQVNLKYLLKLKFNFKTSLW
Chain of Poly [ADP-ribose] polymerase tankyrase-1 (O95271 whole entry): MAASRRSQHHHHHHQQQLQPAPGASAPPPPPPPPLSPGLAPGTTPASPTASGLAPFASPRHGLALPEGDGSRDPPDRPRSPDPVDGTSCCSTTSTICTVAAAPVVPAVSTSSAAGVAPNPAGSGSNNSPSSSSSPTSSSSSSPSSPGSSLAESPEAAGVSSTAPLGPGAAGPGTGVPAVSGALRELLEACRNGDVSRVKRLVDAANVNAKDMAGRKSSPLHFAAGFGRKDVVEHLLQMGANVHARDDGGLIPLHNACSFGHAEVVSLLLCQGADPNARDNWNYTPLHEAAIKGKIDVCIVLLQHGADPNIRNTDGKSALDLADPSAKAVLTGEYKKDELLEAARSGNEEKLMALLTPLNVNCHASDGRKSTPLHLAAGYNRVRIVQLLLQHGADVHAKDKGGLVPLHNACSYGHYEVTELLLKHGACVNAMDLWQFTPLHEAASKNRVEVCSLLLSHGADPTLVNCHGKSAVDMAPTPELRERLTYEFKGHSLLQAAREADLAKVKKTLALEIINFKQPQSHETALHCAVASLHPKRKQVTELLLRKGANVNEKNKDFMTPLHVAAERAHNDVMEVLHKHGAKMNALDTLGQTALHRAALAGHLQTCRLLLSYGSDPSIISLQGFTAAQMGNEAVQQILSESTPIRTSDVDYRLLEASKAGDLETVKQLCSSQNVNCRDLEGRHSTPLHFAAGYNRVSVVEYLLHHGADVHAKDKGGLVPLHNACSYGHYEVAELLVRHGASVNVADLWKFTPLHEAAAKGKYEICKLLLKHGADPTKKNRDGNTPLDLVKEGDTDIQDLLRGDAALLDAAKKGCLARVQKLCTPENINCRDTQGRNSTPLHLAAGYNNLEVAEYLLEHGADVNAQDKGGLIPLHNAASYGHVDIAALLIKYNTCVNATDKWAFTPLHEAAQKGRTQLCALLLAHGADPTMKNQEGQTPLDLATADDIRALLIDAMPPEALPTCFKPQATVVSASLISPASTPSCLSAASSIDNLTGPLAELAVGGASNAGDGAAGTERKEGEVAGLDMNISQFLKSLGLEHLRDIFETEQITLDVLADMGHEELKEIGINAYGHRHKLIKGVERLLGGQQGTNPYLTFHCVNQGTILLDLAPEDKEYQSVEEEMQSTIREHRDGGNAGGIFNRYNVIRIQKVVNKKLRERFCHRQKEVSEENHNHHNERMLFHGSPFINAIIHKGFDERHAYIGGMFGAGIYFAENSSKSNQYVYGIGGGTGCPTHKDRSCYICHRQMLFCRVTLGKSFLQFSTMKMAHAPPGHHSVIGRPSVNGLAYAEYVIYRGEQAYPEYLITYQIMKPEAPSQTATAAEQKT
Chain of CYP2D6 (P10635 whole entry, the tested form may be a part): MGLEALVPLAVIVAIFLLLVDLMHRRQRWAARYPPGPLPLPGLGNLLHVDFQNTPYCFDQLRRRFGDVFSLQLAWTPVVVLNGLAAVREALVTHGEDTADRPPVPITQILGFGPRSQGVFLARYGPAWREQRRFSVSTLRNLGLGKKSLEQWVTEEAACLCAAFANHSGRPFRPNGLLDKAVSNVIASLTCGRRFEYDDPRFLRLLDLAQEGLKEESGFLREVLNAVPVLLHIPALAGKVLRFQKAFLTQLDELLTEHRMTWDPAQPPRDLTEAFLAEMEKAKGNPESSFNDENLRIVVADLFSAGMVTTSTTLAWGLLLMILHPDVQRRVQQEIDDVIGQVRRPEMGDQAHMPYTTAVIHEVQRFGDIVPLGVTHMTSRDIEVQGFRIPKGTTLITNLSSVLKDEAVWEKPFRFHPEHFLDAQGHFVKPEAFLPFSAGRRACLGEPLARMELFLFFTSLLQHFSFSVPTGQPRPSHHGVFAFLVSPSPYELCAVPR
Chain of CYP1A2 (P05177 whole entry): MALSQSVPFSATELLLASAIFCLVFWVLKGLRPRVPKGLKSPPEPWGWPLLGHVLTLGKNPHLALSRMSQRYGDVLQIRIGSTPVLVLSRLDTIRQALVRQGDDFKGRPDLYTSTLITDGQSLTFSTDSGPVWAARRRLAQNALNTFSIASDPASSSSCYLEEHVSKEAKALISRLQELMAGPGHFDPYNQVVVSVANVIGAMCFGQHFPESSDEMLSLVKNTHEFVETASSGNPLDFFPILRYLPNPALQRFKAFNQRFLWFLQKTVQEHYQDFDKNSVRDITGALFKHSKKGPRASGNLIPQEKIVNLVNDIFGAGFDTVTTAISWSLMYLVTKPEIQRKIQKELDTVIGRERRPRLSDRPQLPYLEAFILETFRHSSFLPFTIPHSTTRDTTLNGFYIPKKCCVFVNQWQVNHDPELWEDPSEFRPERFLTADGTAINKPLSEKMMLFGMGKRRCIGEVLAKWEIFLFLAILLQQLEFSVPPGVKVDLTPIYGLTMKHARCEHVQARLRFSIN
Chain of CYP2E1 (P05181 whole entry): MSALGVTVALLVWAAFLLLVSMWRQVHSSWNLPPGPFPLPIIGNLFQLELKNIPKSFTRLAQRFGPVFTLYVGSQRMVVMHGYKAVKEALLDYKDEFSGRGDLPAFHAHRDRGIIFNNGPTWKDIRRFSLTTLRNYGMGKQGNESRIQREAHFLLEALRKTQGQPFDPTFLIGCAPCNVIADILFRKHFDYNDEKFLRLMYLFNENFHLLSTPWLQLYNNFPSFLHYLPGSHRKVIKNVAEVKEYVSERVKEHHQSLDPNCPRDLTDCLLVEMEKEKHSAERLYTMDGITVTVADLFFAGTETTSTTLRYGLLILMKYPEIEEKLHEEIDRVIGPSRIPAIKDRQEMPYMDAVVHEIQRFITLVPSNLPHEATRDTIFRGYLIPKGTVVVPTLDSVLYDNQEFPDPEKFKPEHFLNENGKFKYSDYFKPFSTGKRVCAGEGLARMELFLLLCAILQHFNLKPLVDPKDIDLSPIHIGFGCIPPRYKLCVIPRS
Chain of Mitogen-activated protein kinase kinase kinase 14 (Homo sapiens) (Q99558 whole entry, looked up): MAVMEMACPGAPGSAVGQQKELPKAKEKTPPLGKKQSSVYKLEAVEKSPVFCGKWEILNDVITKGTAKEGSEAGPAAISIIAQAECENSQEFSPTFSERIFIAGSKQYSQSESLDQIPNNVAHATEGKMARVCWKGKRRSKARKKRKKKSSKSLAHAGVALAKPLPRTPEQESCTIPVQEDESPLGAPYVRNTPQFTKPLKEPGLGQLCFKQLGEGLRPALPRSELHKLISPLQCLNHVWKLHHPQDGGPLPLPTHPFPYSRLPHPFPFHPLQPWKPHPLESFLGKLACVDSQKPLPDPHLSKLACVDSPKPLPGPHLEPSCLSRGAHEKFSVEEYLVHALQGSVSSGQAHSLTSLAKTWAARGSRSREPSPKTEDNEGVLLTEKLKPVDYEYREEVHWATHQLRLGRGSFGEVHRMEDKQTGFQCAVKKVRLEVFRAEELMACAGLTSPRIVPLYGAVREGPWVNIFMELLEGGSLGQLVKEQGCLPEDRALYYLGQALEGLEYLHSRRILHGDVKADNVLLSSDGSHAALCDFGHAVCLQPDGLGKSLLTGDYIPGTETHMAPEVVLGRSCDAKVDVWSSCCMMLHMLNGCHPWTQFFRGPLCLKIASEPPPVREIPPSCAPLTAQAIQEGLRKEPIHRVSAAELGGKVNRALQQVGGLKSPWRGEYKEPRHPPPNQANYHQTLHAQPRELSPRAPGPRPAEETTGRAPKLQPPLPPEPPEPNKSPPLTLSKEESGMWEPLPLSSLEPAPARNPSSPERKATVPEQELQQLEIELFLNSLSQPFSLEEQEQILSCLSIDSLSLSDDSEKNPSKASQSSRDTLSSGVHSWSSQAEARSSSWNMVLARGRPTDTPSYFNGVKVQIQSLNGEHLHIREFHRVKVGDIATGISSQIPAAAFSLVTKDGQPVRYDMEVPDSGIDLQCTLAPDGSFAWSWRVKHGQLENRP

In the case of `N#Cc1ccc(N2CCN([C@H]3C=C(c4cc5ncccc5c(=O)[nH]4)CC3)CC2)cc1`, the fraction unbound was 0.125 in data set [1] and 0.074 in data set [9]. The clearance (commonly the rate of elimination divided by the concentration) in [2] was determined as 0.4 mL/min/kg. The Vd in data set [3] was 0.2 L/kg. For the same compound, the half-life – broadly, the time in which the quantity being followed falls by half – in [4] was 5.1 h. In addition, the peak level in [5] (Cmax) was 11 µM. In addition, the inhibition in vivo (usually the percentage by which the read-out fell short of the control) at 0.15 mg/kg in the data set on MDA-MB-436 [6] was above 90%. Further, the inhibition at 10 µM on CYP1A2, at CYP2E1 and on CYP2D6 was at most 23% each time. The IC50 (in general, the midpoint of a concentration-inhibition curve) in [7] amounted to 769 nM; in [14], 1.1 nM. In addition, in data set [8], the remaining at 4 h turned out to be 80%. Besides, in the data set on MCF7, the Activity was 36%. Moreover, the inhibition in vivo at 0.05 mg/kg with MDA-MB-436 [10] was determined as 83%. Also, the Tmax (commonly the time at which the peak concentration occurs) was determined as 1 h in data set [11] and 4.8 min in data set [16]. Further, the bioavailability (commonly the share of a dose that reaches the circulation, judged against a reference dose that is usually intravenous) in data set [12] was 43%. The inhibition (commonly the percentage by which the read-out fell short of the control) in data set [13] was 65%. Moreover, the AUC(0-t) (in general, exposure summed from dosing to a finite time, without extrapolation to infinity) at 24 h in [15] was determined as 94 µM·h.
